Results published in ChEMBL document CHEMBL1201861, “Genomics of Drug Sensitity in Cancer screening data, Wellcome Trust Sanger Institute”.
pIC50: −log10 of the molar value.

Columns and labels:
Experiment in all cases: cells
NCI-H720 = format: functional, cell-based; details: Homo sapiens;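 note: growth inhibition of human NCI-H720 cells determined by a cell viability assay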
Description: SANGER: Inhibition of human NCI-H720 cell growth in a cell viability assay.

LB2518-MEL = format: functional, cell-based, Homo sapiens; details: Homo sapiens, LB2518-MEL;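 note: growth inhibition of human LB2518-MEL cells, measured with a cell viability assay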
Description: SANGER: Inhibition of human LB2518-MEL cell growth in a cell viability assay.

EW-13 = format: functional, cell-based; details: Homo sapiens;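 note: growth inhibition of EW-13 cells, read out with a cell viability assay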
Description: SANGER: Inhibition of human EW-13 cell growth in a cell viability assay.

COLO-824 = format: functional, cell-based, Homo sapiens; details: Homo sapiens, COLO-824
Description: SANGER: Inhibition of human COLO-824 cell growth in a cell viability assay.

FaDu = format: functional, cell-based, Homo sapiens; details: Homo sapiens, FaDu;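 note: cell viability readout of growth inhibition in FaDu cells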
Description: SANGER: Inhibition of human FADU cell growth in a cell viability assay.

J82 = format: functional, cell-based; details: Homo sapiens;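 note: growth inhibition of J82 cells, read out with a cell viability assay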
Description: SANGER: Inhibition of human J82 cell growth in a cell viability assay.

LAMA-84 = format: functional, cell-based; details: Homo sapiens;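 note: growth inhibition of LAMA-84 cells, read out with a cell viability assay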
Description: SANGER: Inhibition of human LAMA-84 cell growth in a cell viability assay.

SW837 = format: functional, cell-based, Homo sapiens; details: Homo sapiens, SW837;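 note: growth inhibition of SW837 cells, determined with a cell viability assay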
Description: SANGER: Inhibition of human SW837 cell growth in a cell viability assay.

ONS-76 = format: functional, cell-based, Homo sapiens; details: Homo sapiens, ONS-76;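 note: growth inhibition of human ONS-76 cells, read out with a cell viability assay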
CAL-85-1 = format: functional, cell-based; details: Homo sapiens;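 note: growth inhibition of human CAL-85-1 cells, read out with a cell viability assay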
CW-2 = format: functional, cell-based, Homo sapiens; details: Homo sapiens, CW-2;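 note: growth inhibition of CW-2 cells, read out by a cell viability assay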
Description: SANGER: Inhibition of human CW-2 cell growth in a cell viability assay.

LS-411N = format: functional, cell-based, Homo sapiens; details: Homo sapiens, LS-411N
HH = format: functional, cell-based; details: Homo sapiens
Description: SANGER: Inhibition of human HH cell growth in a cell viability assay.

LS-513 = format: functional, cell-based, Homo sapiens; details: Homo sapiens, LS-513
Description: SANGER: Inhibition of human LS-513 cell growth in a cell viability assay.

A3-KAW = format: functional, cell-based; details: Homo sapiens;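 note: growth inhibition of human A3-KAW cells, read out with a cell viability assay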
Description: SANGER: Inhibition of human A3-KAW cell growth in a cell viability assay.

PSN1 = format: functional, cell-based, Homo sapiens; details: Homo sapiens, PSN1;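 note: suppression of growth of human PSN1 cells, read out by a cell viability assay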
Description: SANGER: Inhibition of human PSN1 cell growth in a cell viability assay.

Ca9-22 = format: functional, cell-based, Homo sapiens; details: Homo sapiens, Ca9-22;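 note: growth inhibition of Ca9-22 cells, read out with a cell viability assay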
Description: SANGER: Inhibition of human Ca9-22 cell growth in a cell viability assay.

EM-2 = format: functional, cell-based; details: Homo sapiens;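 note: growth inhibition of EM-2 cells, read out with a cell viability assay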
Description: SANGER: Inhibition of human EM-2 cell growth in a cell viability assay.

LU-139 = format: functional, cell-based; details: Homo sapiens
Description: SANGER: Inhibition of human LU-139 cell growth in a cell viability assay.

RERF-LC-MS = format: functional, cell-based, Homo sapiens; details: Homo sapiens, RERF-LC-MS;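 note: growth inhibition of human RERF-LC-MS cells, read out by a cell viability assay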
Description: SANGER: Inhibition of human RERF-LC-MS cell growth in a cell viability assay.

HT-3 = format: functional, cell-based, Homo sapiens; details: Homo sapiens, HT-3;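 note: growth inhibition measured with a cell viability readout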
Description: SANGER: Inhibition of human HT-3 cell growth in a cell viability assay.

NCI-H650 = format: functional, cell-based, Homo sapiens; details: Homo sapiens, NCI-H650;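 note: growth inhibition of NCI-H650 cells, read out by a viability assay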
Description: SANGER: Inhibition of human NCI-H650 cell growth in a cell viability assay.

NEC8 = format: functional, cell-based, Homo sapiens; details: Homo sapiens, NEC8;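 note: growth inhibition of human NEC8 cells, read out by a cell viability assay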
Description: SANGER: Inhibition of human NEC8 cell growth in a cell viability assay.

AM-38 = format: functional, cell-based, Homo sapiens; details: Homo sapiens, AM-38;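 note: growth inhibition of AM-38 cells of human origin, read out by a cell viability assay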
Description: SANGER: Inhibition of human AM-38 cell growth in a cell viability assay.

Detroit 562 = format: functional, cell-based, Homo sapiens; details: Homo sapiens, Detroit 562;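 note: growth inhibition of human Detroit 562 cells, read out by a cell viability assay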
TE-9 = format: functional, cell-based, Homo sapiens; details: Homo sapiens, TE-9;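 note: cell growth inhibition, measured with a cell viability readout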
Description: SANGER: Inhibition of human TE-9 cell growth in a cell viability assay.

SF-295 = format: functional, cell-based, Homo sapiens; details: Homo sapiens, SF-295; read-out: IC50;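 note: growth inhibition of SF-295 cells, read out with a cell viability assay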
Description: SANGER: Inhibition of human SF295 cell growth in a cell viability assay.

HEC-1 = format: functional, cell-based, Homo sapiens; details: Homo sapiens, HEC-1;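 note: growth inhibition of the cell line, read out with a cell viability assay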
Description: SANGER: Inhibition of human HEC-1 cell growth in a cell viability assay.

HEL = format: functional, cell-based, Homo sapiens; details: Homo sapiens, HEL;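 note: growth inhibition of HEL cells, read out with a cell viability assay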
Description: SANGER: Inhibition of human HEL cell growth in a cell viability assay.

Ca-Ski = format: functional, cell-based; details: Homo sapiens;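 note: cell viability assay measuring inhibition of Ca-Ski cell growth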
Description: SANGER: Inhibition of human Ca-Ski cell growth in a cell viability assay.

NCI-H2087 = format: functional, cell-based, Homo sapiens; details: Homo sapiens, NCI-H2087;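 note: growth inhibition determined with a cell viability readout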
Description: SANGER: Inhibition of human NCI-H2087 cell growth in a cell viability assay.

KYSE-520 cell line = format: functional, cell-based, Homo sapiens; details: Homo sapiens, KYSE-520;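 note: growth inhibition of human KYSE-520 cells, read out with a viability assay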
Description: SANGER: Inhibition of human KYSE-520 cell growth in a cell viability assay.

GT3TKB = format: functional, cell-based, Homo sapiens; details: Homo sapiens, GT3TKB;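 note: growth inhibition of the cell line, read out with a cell viability assay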
Description: SANGER: Inhibition of human GT3TKB cell growth in a cell viability assay.

A-375 = format: functional, cell-based, Homo sapiens; details: Homo sapiens, A-375;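 note: growth inhibition of A375 cells, read out with a cell viability assay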
Description: SANGER: Inhibition of human A375 cell growth in a cell viability assay.

P12-Ichikawa = format: functional, cell-based; details: Homo sapiens
MPP-89 = format: functional, cell-based, Homo sapiens; details: Homo sapiens, MPP-89;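 note: growth inhibition of human MPP-89 cells, read out with a cell viability assay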
Description: SANGER: Inhibition of human MPP-89 cell growth in a cell viability assay.

COLO-678 = format: functional, cell-based, Homo sapiens; details: Homo sapiens, COLO-678
Description: SANGER: Inhibition of human COLO-678 cell growth in a cell viability assay.

PA-1 = format: functional, cell-based, Homo sapiens; details: Homo sapiens, PA-1;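 note: IC50 for suppression of PA-1 cell proliferation, determined with a cell viability read-out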
Description: SANGER: Inhibition of human PA-1 cell growth in a cell viability assay.

PC-3 = format: functional, cell-based, Homo sapiens; details: Homo sapiens, PC-3;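 note: cell viability assay measuring growth inhibition of PC-3 cells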
Description: SANGER: Inhibition of human PC-3 cell growth in a cell viability assay.

NOS-1 = format: functional, cell-based, Homo sapiens; details: Homo sapiens, NOS-1;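 note: growth inhibition of the human NOS-1 cell line, read out with a cell viability assay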
Description: SANGER: Inhibition of human NOS-1 cell growth in a cell viability assay.

MDA-MB-415 = format: functional, cell-based; details: Homo sapiens
KU-19-19 = format: functional, cell-based, Homo sapiens; details: Homo sapiens, KU-19-19
Description: SANGER: Inhibition of human KU-19-19 cell growth in a cell viability assay.

LCLC-97TM1 = format: functional, cell-based, Homo sapiens; details: Homo sapiens, LCLC-97TM1;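 note: cell viability assay measuring growth inhibition of human LCLC-97TM1 cells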
Description: SANGER: Inhibition of human LCLC-97TM1 cell growth in a cell viability assay.

HT = format: functional, cell-based; details: Homo sapiens
Description: SANGER: Inhibition of human HT cell growth in a cell viability assay.

Capan-2 = format: functional, cell-based, Homo sapiens; details: Homo sapiens, Capan-2;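 note: Capan-2 cell growth inhibition, read out with a viability assay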
Description: SANGER: Inhibition of human Capan-2 cell growth in a cell viability assay.

NCI-H2126 = format: functional, cell-based, Homo sapiens; details: Homo sapiens, NCI-H2126;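 note: growth inhibition of the cancer cell line, determined with a cell viability readout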
Description: SANGER: Inhibition of human NCI-H2126 cell growth in a cell viability assay.

A-431 = format: functional, cell-based, Homo sapiens; details: Homo sapiens, A-431;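 note: growth inhibition of A-431 cells, determined with a cell viability read-out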
Description: SANGER: Inhibition of human A431 cell growth in a cell viability assay.

SK-HEP1 = format: functional, cell-based, Homo sapiens, SK-HEP-1; details: Homo sapiens, SK-HEP1;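 note: cell viability readout used to quantify reduction in proliferation of human SK-HEP-1 cells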
Description: SANGER: Inhibition of human SK-HEP-1 cell growth in a cell viability assay.

NCI-H747 = format: functional, cell-based; details: Homo sapiens;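 note: growth inhibition of human NCI-H747 cells, read out by a cell viability assay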
HPAF-II = format: functional, cell-based, Homo sapiens; details: Homo sapiens, HPAF-II;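 note: growth inhibition of HPAF-II cells, read out with a cell viability assay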
Description: SANGER: Inhibition of human HPAF-II cell growth in a cell viability assay.

TE-12 = format: functional, cell-based; details: Homo sapiens;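 note: growth inhibition of TE-12 cells, read out by a cell viability assay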
Description: SANGER: Inhibition of human TE-12 cell growth in a cell viability assay.

NCI-H2228 = format: functional, cell-based, Homo sapiens; details: Homo sapiens, NCI-H2228;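 note: growth inhibition of human NCI-H2228 cells, read out by a cell viability assay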
Description: SANGER: Inhibition of human NCI-H2228 cell growth in a cell viability assay.

AGS = format: functional, cell-based, Homo sapiens; details: Homo sapiens, AGS;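 note: growth inhibition of AGS cells, determined with a cell viability assay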
Description: SANGER: Inhibition of human AGS cell growth in a cell viability assay.

Compound CN(C)C/C=C/C(=O)Nc1cc2c(Nc3ccc(F)c(Cl)c3)ncnc2cc1O[C@H]1CCOC1 [AFATINIB] has a pIC50 (NCI-H720) of 7.27, a pIC50 (LB2518-MEL) of less than 6.30 and a pIC50 (EW-13) of less than 6.30. The pIC50 (COLO-824) was less than 6.30, the pIC50 (FaDu) was less than 6.30 and the pIC50 (J82) was less than 6.30. For the same compound, the pIC50 (LAMA-84) was less than 6.30, the pIC50 (SW837) was less than 6.30 and the pIC50 (ONS-76) was less than 6.30. The pIC50 (CAL-85-1) was less than 6.30, the pIC50 (CW-2) was 6.33 and the pIC50 (LS-411N) was less than 6.30. The pIC50 (HH) was less than 6.30, the pIC50 (LS-513) was less than 6.30 and the pIC50 (A3-KAW) was less than 6.30. The pIC50 (PSN1) was less than 6.30, the pIC50 (Ca9-22) was 7.08 and the pIC50 (EM-2) was less than 6.30. It also gave a pIC50 (LU-139) of 6.52, a pIC50 (RERF-LC-MS) of less than 6.30 and a pIC50 (HT-3) of less than 6.30. The pIC50 (NCI-H650) was less than 6.30, the pIC50 (NEC8) was less than 6.30 and the pIC50 (AM-38) was less than 6.30. For the same compound, the pIC50 (Detroit 562) was less than 6.30, the pIC50 (TE-9) was less than 6.30 and the pIC50 (SF-295) was less than 6.30. It also gave a pIC50 (HEC-1) of less than 6.30, a pIC50 (HEL) of less than 6.30 and a pIC50 (Ca-Ski) of less than 6.30. It also gave a pIC50 (NCI-H2087) of less than 6.30, a pIC50 (KYSE-520 cell line) of less than 6.30 and a pIC50 (GT3TKB) of less than 6.30. The pIC50 (A-375) was less than 6.30, the pIC50 (P12-Ichikawa) was less than 6.30 and the pIC50 (MPP-89) was less than 6.30. The pIC50 (COLO-678) was less than 6.30, the pIC50 (PA-1) was less than 6.30 and the pIC50 (PC-3) was less than 6.30. The pIC50 (NOS-1) was less than 6.30, the pIC50 (MDA-MB-415) was less than 6.30 and the pIC50 (KU-19-19) was less than 6.30. For the same compound, the pIC50 (LCLC-97TM1) was less than 6.30, the pIC50 (HT) was less than 6.30 and the pIC50 (Capan-2) was less than 6.30. It also gave a pIC50 (NCI-H2126) of less than 6.30, a pIC50 (A-431) of 6.32 and a pIC50 (SK-HEP1) of less than 6.30. It also gave a pIC50 (NCI-H747) of less than 6.30, a pIC50 (HPAF-II) of less than 6.30 and a pIC50 (TE-12) of less than 6.30. The pIC50 (NCI-H2228) was less than 6.30 and the pIC50 (AGS) was less than 6.30.
With COc1ccc(-c2ccc3c(N4CCOC[C@@H]4C)nc(N4CCOC[C@@H]4C)nc3n2)cc1CO [AZD-8055] the pIC50 (NCI-H720) was 7.53, the pIC50 (LB2518-MEL) was less than 5.70 and the pIC50 (EW-13) was less than 5.70. The pIC50 (COLO-824) was less than 5.70, the pIC50 (FaDu) was less than 5.70 and the pIC50 (J82) was less than 5.70. The pIC50 (LAMA-84) was 6.74, the pIC50 (SW837) was less than 5.70 and the pIC50 (ONS-76) was less than 5.70. The pIC50 (CAL-85-1) was 5.82, the pIC50 (CW-2) was less than 5.70 and the pIC50 (LS-411N) was 5.94. For the same compound, the pIC50 (HH) was 7.10, the pIC50 (LS-513) was less than 5.70 and the pIC50 (A3-KAW) was 6.53. It also gave a pIC50 (PSN1) of 6.11, a pIC50 (Ca9-22) of 6.10 and a pIC50 (EM-2) of 6.47. For the same compound, the pIC50 (LU-139) was 7.63, the pIC50 (RERF-LC-MS) was less than 5.70 and the pIC50 (HT-3) was 5.78. The pIC50 (NCI-H650) was 6.10, the pIC50 (NEC8) was 6.38 and the pIC50 (AM-38) was 5.86. The pIC50 (Detroit 562) was 5.92, the pIC50 (TE-9) was less than 5.70 and the pIC50 (SF-295) was 6.16. For the same compound, the pIC50 (HEC-1) was 5.93, the pIC50 (HEL) was 5.71 and the pIC50 (Ca-Ski) was less than 5.70. The pIC50 (NCI-H2087) was less than 5.70, the pIC50 (KYSE-520 cell line) was less than 5.70 and the pIC50 (GT3TKB) was less than 5.70. It also gave a pIC50 (A-375) of 6.12, a pIC50 (P12-Ichikawa) of 5.99 and a pIC50 (MPP-89) of 6.33. It also gave a pIC50 (COLO-678) of less than 5.70, a pIC50 (PA-1) of 6.47 and a pIC50 (PC-3) of 6.14. It also gave a pIC50 (NOS-1) of 6.39, a pIC50 (MDA-MB-415) of 5.91 and a pIC50 (KU-19-19) of 6.07. The pIC50 (LCLC-97TM1) was 5.85, the pIC50 (HT) was 6.53 and the pIC50 (Capan-2) was less than 5.70. The pIC50 (NCI-H2126) was 5.78, the pIC50 (A-431) was 6.08 and the pIC50 (SK-HEP1) was less than 5.70. For the same compound, the pIC50 (NCI-H747) was 6.12, the pIC50 (HPAF-II) was 6.09 and the pIC50 (TE-12) was 5.85. It also gave a pIC50 (NCI-H2228) of 5.90 and a pIC50 (AGS) of 5.96.
